SMILES strings stand for the structures. ≈ marks a conversion by molar mass, not a printed value.

The values that follow come from patent US4613608A (priority 1982, dated 1986).

For one test, the system named is small coronary artery. Nature of the test: tissue or blood. The note with it: Canis lupus familiaris, read-out: ED50 Small (S). In kind it is cell-based, dogs.
The next test relates to large coronary artery. Nature of the test: tissue or blood. In kind it is cell-based, dogs. Particulars: for EC50: Canis lupus familiaris, read-out: ED50 Large (L); for S/L: dog, coronary artery strips.

With `O=[N+]([O-])OCc1cccnc1` [Compound A, 3-Nitroxymethylpyridine, reference compound], the values for the EC50 in the test on small coronary artery and in the test with large coronary artery were 1.9 µg/mL (≈ 12.3 µM) and 0.08 µg/mL (≈ 0.519 µM), respectively. This compound displayed a S/L in the test on large coronary artery of 23.8.

As to `O=[N+]([O-])OCCCc1ccncc1` [Compound C, 4-(3-Nitroxypropyl)pyridine], the EC50 in the test on small coronary artery is > 10 µg/mL. For the same compound, in the test with large coronary artery, the EC50 was determined as 0.0125 µg/mL (≈ 0.0686 µM) and the S/L was > 800.

With `O=[N+]([O-])OCc1cccc(Cl)n1` [Compound D, 2-Nitroxymethyl-6-chloropyridine], the EC50 in the test with small coronary artery came to 6.2 µg/mL (≈ 32.9 µM). In the test on large coronary artery, the EC50 came to 0.0067 µg/mL (≈ 0.0355 µM) and the S/L was found to be 925.
